Source: US20240218022A1, “ANTI-VISTA MACROCYCLIC PEPTIDES AND COMPOSITIONS” (BRISTOL-MYERS SQUIBB COMPANY, priority 2022, published 2024)
Like-named read-outs stand apart in the source and are kept apart here. Positions of bridges follow the written chain, without caps; N, C: chain ends. Non-standard residues stand in square brackets, D forms with d. Residues, ends and D or L forms follow the SMILES beside them. Phe(3-F) = N[C@@H](Cc1cccc(F)c1)C(=O)O; Phe(3-Me) = Cc1cccc(C[C@H](N)C(=O)O)c1; 2Nal = N[C@@H](Cc1ccc2ccccc2c1)C(=O)O; Cit = NC(=O)NCCC[C@H](N)C(=O)O; Ahp(2) = CCCCC[C@H](N)C(=O)O; NMeNle = CCCC[C@H](NC)C(=O)O; Tle = CC(C)(C)[C@H](N)C(=O)O; NHexGly = CCCCCCNCC(=O)O; Nle = CCCC[C@H](N)C(=O)O; Dap = NC[C@H](N)C(=O)O

Biological target: T1, mouse VISTA (mVISTA) (Mus musculus, UniProt Q9D659)
T1 construct: expressed in transfected cells; host or cells: Human embryonic kidney 293T cells
T1 sequence (Q9D659 33-308): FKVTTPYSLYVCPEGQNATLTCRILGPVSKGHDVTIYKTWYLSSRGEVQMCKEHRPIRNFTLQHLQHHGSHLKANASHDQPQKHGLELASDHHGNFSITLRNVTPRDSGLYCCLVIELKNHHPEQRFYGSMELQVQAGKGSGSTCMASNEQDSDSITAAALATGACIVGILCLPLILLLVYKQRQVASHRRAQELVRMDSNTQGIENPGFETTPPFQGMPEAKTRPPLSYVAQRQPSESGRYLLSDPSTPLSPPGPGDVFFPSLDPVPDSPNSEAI
Test: Cell-Based Binding High-Content Assay For mVISTA (HC CBA mVISTA)
In short: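 293T cells expressing mouse VISTA, with compounds added either after seeding ("no wash") or before seeding and then washed out after 1 h. Biotinylated peptide 2 nM for 30 min at room temperature, then detection with Alexa 647–streptavidin. After fixation with Hoechst stain, plates were high-content imaged; IC50 from four-parameter logistic fit.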

[1] = 293T cells expressing mouse VISTA, competition with biotinylated peptide (2 nM), read-out: HC CBA mVISTA IC50

CCCCCCN1CC(=O)N[C@@H](Cc2ccc(O)cc2)C(=O)N[C@@H](CC(C)C)C(=O)NCC(=O)N[C@@H](CCCNC(=N)N)C(=O)N(C)[C@@H](CCCC)C(=O)N[C@@H](CCCCC)C(=O)N2CCC[C@H]2C(=O)N[C@@H](C(C)C)C(=O)N[C@@H](CO)C(=O)N[C@H](C(=O)NCC(N)=O)CSCC(=O)N[C@@H](Cc2ccccc2)C(=O)N[C@@H](Cc2ccc(O)cc2)C(=O)N[C@@H](CC(=O)O)C1=O [Example 1081] ({CH2CO}-FYD[NHexGly]YLGR[NMeNle][Ahp(2)]PVSCG-NH2; thioether N-14)
IC50 (293T cells expressing mouse VISTA, competition with biotinylated peptide (2 nM), read-out: CBA mVISTA IC50): 4.6 nM

CCCCCCN1CC(=O)N[C@@H](Cc2ccc(O)cc2)C(=O)N[C@@H](CCCC)C(=O)NCC(=O)N[C@@H](CCCNC(N)=O)C(=O)N[C@@H](CC(C)C)C(=O)N[C@@H](CCCCC)C(=O)N2CCC[C@H]2C(=O)N[C@@H](C(C)C)C(=O)N[C@@H](CC(=O)O)C(=O)N[C@H](C(=O)NCC(N)=O)CSCC(=O)N[C@@H](Cc2ccc3ccccc3c2)C(=O)N[C@@H](Cc2ccc(O)cc2)C(=O)N[C@@H](CC(=O)O)C1=O [Ex 1303] ({CH2CO}-[2Nal]YD[NHexGly]Y[Nle]G[Cit]L[Ahp(2)]PVDCG-NH2; thioether N-14)
IC50 (cell-based binding high-content assay, mVISTA, the 16th table, read-out: HC CBA mVISTA IC50): 8.8 nM

CCCCCCN1CC(=O)N[C@@H](Cc2ccc(O)cc2)C(=O)N[C@@H](CC(C)C)C(=O)N[C@@H](CC(N)=O)C(=O)N[C@@H](CCCNC(=N)N)C(=O)N(C)[C@@H](CCCC)C(=O)N[C@@H](CCCCC)C(=O)N2CCC[C@H]2C(=O)N[C@@H](C(C)(C)C)C(=O)N[C@@H](CO)C(=O)N[C@H](C(=O)NCC(N)=O)CSCC(=O)N[C@@H](Cc2ccccc2)C(=O)N[C@@H](Cc2cccc(F)c2)C(=O)N[C@@H](CC(=O)O)C1=O [compound 1341] ({CH2CO}-F[Phe(3-F)]D[NHexGly]YLNR[NMeNle][Ahp(2)]P[Tle]SCG-NH2; thioether N-14)
IC50 (read-out: HC CBA mVISTA IC50): 19.1 nM

CCCCCCN1CC(=O)N[C@@H](Cc2ccc(O)cc2)C(=O)N[C@@H](CCCC)C(=O)N[C@@H](CC(=O)O)C(=O)N[C@@H](CCCNC(=N)N)C(=O)N[C@@H](CC(C)C)C(=O)N[C@@H](CCCCC)C(=O)N2CCC[C@H]2C(=O)N[C@@H](C(C)C)C(=O)N[C@@H](CC(=O)O)C(=O)N[C@H](C(=O)N[C@H](CC(=O)O)C(N)=O)CSCC(=O)N[C@@H](Cc2ccccc2)C(=O)N[C@@H](Cc2ccc(O)cc2)C(=O)N[C@@H](CC(=O)O)C1=O [Example 1003] ({CH2CO}-FYD[NHexGly]Y[Nle]DRL[Ahp(2)]PVDC[dD]-NH2; thioether N-14)
IC50 [1]: 18.8 nM

CCCCCCN1CC(=O)N[C@@H](Cc2ccc(O)cc2)C(=O)N[C@@H](C(C)C)C(=O)NCC(=O)N[C@@H](CCCNC(=N)N)C(=O)N[C@@H](CC(C)C)C(=O)N[C@@H](CCCCC)C(=O)N2CCC[C@H]2C(=O)N[C@@H](C(C)C)C(=O)N[C@@H](CC(=O)O)C(=O)N[C@H](C(=O)N[C@@H](CO)C(=O)N[C@@H](CN)C(=O)N[C@@H](CC(N)=O)C(=O)O)CSCC(=O)N[C@@H](Cc2ccc3ccccc3c2)C(=O)N[C@@H](Cc2ccc(O)cc2)C(=O)N[C@@H](CC(=O)O)C1=O [Example 1161] ({CH2CO}-[2Nal]YD[NHexGly]YVGRL[Ahp(2)]PVDCS[Dap]N-OH; thioether N-14)
IC50 [1]: 22.7 nM

CCCCCCN1CC(=O)N[C@@H](Cc2ccc(O)cc2)C(=O)N[C@@H](CCCC)C(=O)N[C@@H](CC(=O)O)C(=O)N[C@@H](CCCNC(=N)N)C(=O)N(C)[C@@H](CCCC)C(=O)N[C@@H](CCCCC)C(=O)N2CCC[C@H]2C(=O)N[C@@H](C(C)C)C(=O)N[C@@H](CC(=O)O)C(=O)N[C@H](C(=O)N[C@@H](CC(=O)O)C(N)=O)CSCC(=O)N[C@@H](Cc2cccc(C)c2)C(=O)N[C@@H](Cc2c[nH]c3ccccc23)C(=O)N[C@@H](CC(=O)O)C1=O [compound 1440] ({CH2CO}-[Phe(3-Me)]WD[NHexGly]Y[Nle]DR[NMeNle][Ahp(2)]PVDCD-NH2; thioether N-14)
IC50 (the 19th table, scaffold drawing 22, read-out: HC CBA mVISTA IC50): 14.8 nM
